Patent US4604380A, “C-23-substituted mycaminosyltylonolide compounds, pharmaceutical compositions and methods of use” (Eli Lilly and Company, priority 1985, dated 1986)
≈ marks a conversion by molar mass, not a printed value. Where two headings read alike, the source gives them in different places.

Columns and labels:
[1] = system: Staphylococcus aureus; experiment: ED50 vs. Staphylococcus aureus experimental infection in mice (Table V); type: in vivo; settings: sc, subcutaneous, two doses, dose protecting 50% of animals, read-out: ED50 Subcutaneous
Protocol: (§1) Certain formula 1a compounds have also shown in vivo antimicrobial activity against experimental bacterial infections. When two doses of test compound were administered to mice in experimental infections, the activity observed was measured as an ED50 value [effective dose in mg/kg to protect 50% of the test animals: see Warren Wick, et al., J. Bacteriol. 81, 233-235 (1961)].

[2] = system: Pasteurella multocida; experiment: Activity in Pasteurella multocida-infected one-day-old chicks (Table VIII); type: in vivo; settings: subcutaneous 30 mg/kg × 2, 1 and 4 hours post-challenge, all non-medicated chicks died within 24 hours
Protocol: Table VIII summarizes the results of tests in which illustrative compounds were evaluated against a Pasteurella infection in one-day-old chicks. The compounds were administered parenterally after challenge of the chicks with Pasteurella multocida (0.1 mL of a 10^-4 dilution of a twenty-hour tryptose broth culture of an avian P. multocida given subcutaneously). In these tests, all non-medicated infected chicks died within 24 hours of Pasteurella challenge. In the tests summarized in Table VIII, the compounds were administered by subcutaneous injection at a dosage of 30 mg/kg, 1 and 4 hours post-challenge of the chicks with P. multocida.

[3] = system: Streptococcus sp. 19F; experiment: MIC, conventional broth-dilution microtiter test (Table IV); type: cell-based
Protocol: (§2) The MIC's s in Table III were determined by standard agar-dilution assays. The MIC's in Table IV were obtained using a conventional broth-dilution microtiter test.

[4] = system: Mycoplasma synoviae 40A; experiment: as above; type: cell-based; settings: Mycoplasmopsis synoviae, 40A
Protocol: as §2

[5] = system: Mycoplasma gallisepticum 36H; experiment: as above; type: cell-based; settings: Mycoplasmoides gallisepticum, 36H
Protocol: as §2

[6] = system: Bordetella bronchisepticum 95B; experiment: as above; type: cell-based
Protocol: as §2

[7] = system: Pasteurella multocida 68C; experiment: as above; type: cell-based; settings: broth-dilution microtiter; Pasteurella multocida 68C; read-out: MIC
Protocol: as §2

[8] = system: Mycoplasma gallisepticum 29C; experiment: as above; type: cell-based; settings: Mycoplasmoides gallisepticum, 29C
Protocol: as §2

[9] = system: Pasteurella hemolytica 41D; experiment: as above; type: cell-based; settings: broth-dilution microtiter; Pasteurella hemolytica 41D; read-out: MIC
Protocol: as §2

[10] = system: Pasteurella multocida 17E; experiment: as above; type: cell-based; settings: Pasteurella multocida, 17E
Protocol: as §2

[11] = system: Pasteurella multocida 60A; experiment: as above; type: cell-based; settings: Pasteurella multocida, 60A
Protocol: as §2

[12] = system: Mycoplasma hyorhinis 29E; experiment: as above; type: cell-based; settings: broth-dilution microtiter; Mycoplasma hyorhinis 29E; read-out: MIC
Protocol: as §2

[13] = system: Mycoplasma gallisepticum 15E; experiment: as above; type: cell-based; settings: Mycoplasmoides gallisepticum, 15E
Protocol: as §2

[14] = system: Mycoplasma hyopneumoniae S5972; experiment: as above; type: cell-based; settings: Mesomycoplasma hyopneumoniae, S5972
Protocol: as §2

[15] = system: Pasteurella multocida 40G; experiment: as above; type: cell-based; settings: broth-dilution microtiter; Pasteurella multocida 40G; read-out: MIC
Protocol: as §2

[16] = system: Pasteurella multocida 22A; experiment: as above; type: cell-based; settings: broth-dilution microtiter; Pasteurella multocida 22A; read-out: MIC
Protocol: as §2

[17] = system: Pasteurella hemolytica 23C; experiment: as above; type: cell-based; settings: broth-dilution microtiter; Pasteurella hemolytica 23C; read-out: MIC
Protocol: as §2

[18] = system: Pasteurella hemolytica 22C; experiment: as above; type: cell-based; settings: broth-dilution microtiter; Pasteurella hemolytica 22C; read-out: MIC
Protocol: as §2

[19] = system: Staphylococcus aureus 19C; experiment: as above; type: cell-based; settings: Staphylococcus aureus, 19C
Protocol: as §2

[20] = system: Streptococcus pneumoniae Park I; experiment: microbe, parasite or virus in culture; type: cell-based; settings: Streptococcus pneumoniae
Protocol: as §2

[21] = system: Streptococcous pneumoniae; experiment: ED50 vs. Streptococcous pneumoniae experimental infection in mice (Table VII); type: in vivo; settings: Mus musculus, sc, subcutaneous, two doses, read-out: ED50 Subcutaneous
Protocol: as §1

[22] = system: Streptococcus pyogenes; experiment: ED50 vs Streptococcus pyogenes experimental infection in mice (Table VI); type: in vivo; settings: two doses, several values = results from more than one test
Protocol: as §1

[23] = system: Streptococcus Group D X66; experiment: MIC, standard agar-dilution assay (Table III); type: cell-based
Protocol: as §2

[24] = system: Staphylococcus epidermidis 222; experiment: MIC, standard agar-dilution assay (Table III); type: cell-based; settings: Staphylococcus epidermidis, 222
Protocol: as §2

[25] = system: Staphylococcus aureus V41; experiment: MIC, standard agar-dilution assay (Table III); type: cell-based; settings: Staphylococcus aureus V41, penicillin-resistant strain
Protocol: as §2

[26] = system: Haemophilus influenzae C.L.; experiment: MIC, standard agar-dilution assay (Table III); type: cell-based; settings: Haemophilus influenzae
Protocol: as §2

[27] = system: Staphylococcus aureus S13E; experiment: MIC, standard agar-dilution assay (Table III); type: cell-based
Protocol: as §2

[28] = system: Haemophilus influenzae 76; experiment: MIC, standard agar-dilution assay (Table III); type: cell-based; settings: Haemophilus influenzae, 76
Protocol: as §2

[29] = system: Streptococcus pyogenes C203; experiment: MIC, standard agar-dilution assay (Table III); type: cell-based; settings: Streptococcus pyogenes, C203
Protocol: as §2

[30] = system: Staphylococcus epidermidis EPI1; experiment: MIC, standard agar-dilution assay (Table III); type: cell-based; settings: Staphylococcus epidermidis, EPI1
Protocol: as §2

[31] = system: Streptococcus Group D 2041; experiment: MIC, standard agar-dilution assay (Table III); type: cell-based; settings: GROUPD2041
Protocol: as §2

[32] = system: Staphylococcus aureus X1.1; experiment: MIC, standard agar-dilution assay (Table III); type: cell-based
Protocol: as §2

[33] = system: Staphylococcus aureus X400; experiment: MIC, standard agar-dilution assay (Table III); type: cell-based; settings: Staphylococcus aureus, X400
Protocol: as §2

## CCC1OC(=O)CC(O)C(C)C(OC2OC(C)C(O)C(N(C)C)C2O)C(CC=O)CC(C)C(=O)C=CC(C)=CC1CN1CC2CCC(CC2)C1 (centres unmarked) [Compound 17, 23-(3-azabicyclo[3.2.2]nonan-3-yl)-OMT]
[1]
  ED50: 2.31 mg/kg
[2]
  Number of Deaths/Number Treated: 10/10
[3]
  MIC: 0.39 µg/mL (≈ 0.553 µM)
[4]
  MIC: < 0.048 µg/mL
[5]
  MIC: 50 µg/mL (≈ 70.9 µM)
[6]
  MIC: 6.25 µg/mL (≈ 8.87 µM)
[7]
  MIC: 0.39 µg/mL (≈ 0.553 µM)
[8]
  MIC: < 0.048 µg/mL
[9]
  MIC: 0.39 µg/mL (≈ 0.553 µM)
[10]
  MIC: 0.78 µg/mL (≈ 1.11 µM)
[11]
  MIC: 0.78 µg/mL (≈ 1.11 µM)
[12]
  MIC: 0.39 µg/mL (≈ 0.553 µM)
[13]
  MIC: 50 µg/mL (≈ 70.9 µM)
[14]
  MIC: 0.048 µg/mL (≈ 0.0681 µM)
[15]
  MIC: 0.39 µg/mL (≈ 0.553 µM)
[16]
  MIC: 0.39 µg/mL (≈ 0.553 µM)
[17]
  MIC: 0.39 µg/mL (≈ 0.553 µM)
[18]
  MIC: 0.39 µg/mL (≈ 0.553 µM)
[19]
  MIC: 0.78 µg/mL (≈ 1.11 µM)
[20]
  MIC: 0.06 µg/mL (≈ 0.0851 µM)
[21]
  ED50: > 10 mg/kg
[22]; po, read-out: ED50 Oral
  ED50: > 100 mg/kg
[22]; sc, subcutaneous, read-out: ED50 Subcutaneous
  ED50: 9.09 mg/kg
[22]; subcutaneous
  ED50 Subcutaneous: > 10 mg/kg × 2
[23]
  MIC: 0.5 µg/mL (≈ 0.709 µM)
[24]
  MIC: 0.25 µg/mL (≈ 0.355 µM)
[25]
  MIC: 0.5 µg/mL (≈ 0.709 µM)
[26]
  MIC: 2 µg/mL (≈ 2.84 µM)
[27]
  MIC: 0.5 µg/mL (≈ 0.709 µM)
[28]
  MIC: 2 µg/mL (≈ 2.84 µM)
[29]
  MIC: 0.25 µg/mL (≈ 0.355 µM)
[30]
  MIC: 0.5 µg/mL (≈ 0.709 µM)
[31]
  MIC: 1 µg/mL (≈ 1.42 µM)
[32]
  MIC: 0.5 µg/mL (≈ 0.709 µM)
[33]
  MIC: 0.5 µg/mL (≈ 0.709 µM)
